Results from PubChem BioAssay AID2019 (NMMLSC, 2009).

Target: Cell division control protein 42 homolog (Homo sapiens) (UniProt P60953)
Assay: wildtype Cdc42 GTP-binding inhibitors, SAR follow-up, biochemical, pyrazoline analogs, multiplex bead flow cytometry, Ki (AID 2019)
Conditions: bead-based flow cytometry, Bodipy-FL-GTP binding; Ki calculated from EC50

Chain of Cell division control protein 42 homolog (Homo sapiens) (P60953 whole entry, looked up): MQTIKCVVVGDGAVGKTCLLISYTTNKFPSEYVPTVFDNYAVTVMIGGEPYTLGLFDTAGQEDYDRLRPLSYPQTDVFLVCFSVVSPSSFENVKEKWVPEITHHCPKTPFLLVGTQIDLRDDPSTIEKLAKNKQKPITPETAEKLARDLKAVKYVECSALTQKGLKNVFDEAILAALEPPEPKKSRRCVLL

Row | SMILES | Ki [nM]
1 | O=S(=O)(c1ccc(N2N=C(c3ccccc3)CC2c2ccccc2)cc1)C(F)F (stereo unspecified) | 50
2 | COc1ccc(C2CC(c3ccc(F)cc3)=NN2c2ccc(S(N)(=O)=O)cc2)cc1 (stereo unspecified) | 900
3 | NS(=O)(=O)c1ccc(N2N=C(c3ccccc3)CC2c2cccc(Cl)c2)cc1 (stereo unspecified) | 700
4 | COc1ccc(C2CC(c3ccccc3C)=NN2c2ccc(S(N)(=O)=O)cc2)cc1 (stereo unspecified) | 870
5 | NS(=O)(=O)c1ccc(N2N=C(c3ccccc3)CC2c2cccc(Br)c2)cc1 (stereo unspecified) | 700
6 | COc1ccc(C2CC(c3cccc(C(F)(F)F)c3)=NN2c2ccc(S(N)(=O)=O)cc2)cc1 (stereo unspecified) | 660
7 | COc1ccc(C2CC(c3cccnc3)=NN2c2ccc(S(N)(=O)=O)cc2)cc1 (stereo unspecified) | 2010
8 | COc1ccc(C2CC(c3ccc(Br)cc3)=NN2c2ccc(S(N)(=O)=O)cc2)cc1 (stereo unspecified) | 630
9 | COc1ccc(C2CC(c3cccc(Br)c3)=NN2c2ccc(S(N)(=O)=O)cc2)cc1 (stereo unspecified) | 440
10 | COc1ccc(-c2cc(-c3ccccc3)nn2-c2ccc(S(N)(=O)=O)cc2)cc1 | 1070
11 | COc1ccc(C2CC(c3ccccc3Cl)=NN2c2ccc(S(N)(=O)=O)cc2)cc1 (stereo unspecified) | 550
12 | NS(=O)(=O)c1ccc(N2N=C(c3ccccc3)CC2c2ccccc2Cl)cc1 (stereo unspecified) | 1530
13 | COc1ccccc1C1CC(c2ccccc2)=NN1c1ccc(S(N)(=O)=O)cc1 (stereo unspecified) | 4750
14 | COc1ccc(C2CC(c3ccc(Cl)cc3)=NN2c2ccc(S(N)(=O)=O)cc2)cc1 (stereo unspecified) | 490
15 | COc1ccc(C2CC(c3ccccc3OC)=NN2c2ccc(S(N)(=O)=O)cc2)cc1 (stereo unspecified) | 1270
16 | NS(=O)(=O)c1ccc(N2N=C(c3ccccc3)CC2c2ccc(Cl)cc2)cc1 (stereo unspecified) | 580
17 | COc1ccc(C2CC(c3ccccc3F)=NN2c2ccc(S(N)(=O)=O)cc2)cc1 (stereo unspecified) | 590
18 | COc1ccc(C2CC(c3ccc(F)cc3)=NN2c2cccc(F)c2)cc1OC (stereo unspecified) | 4450
19 | COc1ccc(C2CC(c3ccc(N(C)C)cc3)=NN2c2ccc(S(N)(=O)=O)cc2)cc1 (stereo unspecified) | 710
20 | COc1ccc(C2CC(c3ccccc3)=NN2c2ccc(S(N)(=O)=O)cc2)cc1OC (stereo unspecified) | 1210
21 | COc1ccc(C2CC(c3ccc(C)cc3)=NN2c2ccc(S(N)(=O)=O)cc2)cc1 (stereo unspecified) | 470

The remaining molecules from weak to strong by Ki, led by results:

Row | Ki [nM] | SMILES
22 | 7280 | COc1ccc(C2=NN(c3ccccc3)C(c3ccccc3C(F)(F)F)C2)cc1 (stereo unspecified)
23 | 3510 | Cc1ccccc1C1CC(c2ccccc2)=NN1c1ccc(S(N)(=O)=O)cc1 (stereo unspecified)
24 | 1540 | COc1ccc(C2CC(c3ccsc3)=NN2c2ccc(S(N)(=O)=O)cc2)cc1 (stereo unspecified)
25 | 1060 | Cc1cccc(C2CC(c3ccccc3)=NN2c2ccc(S(N)(=O)=O)cc2)c1 (stereo unspecified)
26 | 1050 | Cc1ccc(C2CC(c3ccccc3)=NN2c2ccc(S(N)(=O)=O)cc2)cc1 (stereo unspecified)
27 | 1010 | COc1cccc(C2CC(c3ccccc3)=NN2c2ccc(S(N)(=O)=O)cc2)c1 (stereo unspecified)
28 | 800 | COc1ccc(C2CC(c3cccc(C)c3)=NN2c2ccc(S(N)(=O)=O)cc2)cc1 (stereo unspecified)
29 | 710 | COc1ccc(C2CC(c3ccccc3Br)=NN2c2ccc(S(N)(=O)=O)cc2)cc1 (stereo unspecified)
30 | 700 | NS(=O)(=O)c1ccc(N2N=C(c3ccc(Cl)cc3)CC2c2ccccc2)cc1 (stereo unspecified)
31 | 620 | COc1ccc(C2CC(c3cccs3)=NN2c2ccc(S(N)(=O)=O)cc2)cc1 (stereo unspecified)
32 | 610 | COc1ccc(C2CC(c3cccc(F)c3)=NN2c2ccc(S(N)(=O)=O)cc2)cc1 (stereo unspecified)
33 | 540 | COc1ccc(C2=NN(c3ccc(S(N)(=O)=O)cc3)C(c3ccc(OC)cc3)C2)cc1 (stereo unspecified)
34 | 310 | COc1ccc(C2CC(c3cccc(OC)c3)=NN2c2ccc(S(N)(=O)=O)cc2)cc1 (stereo unspecified)
35 | 270 | COc1ccc(C2CC(c3cccc(Cl)c3)=NN2c2ccc(S(N)(=O)=O)cc2)cc1 (stereo unspecified)
36 | 230 | NS(=O)(=O)c1ccc(N2N=C(c3ccccc3)CC2c2ccc(Br)cc2)cc1 (stereo unspecified)
